PubChem BioAssay AID248 (DTP/NCI, 2004)
“And” between values parts separate entries of the source, which are not always exact repeats. Equal values may be shown once. Toxic doses and inconclusive results are not listed. Rule as the data show it: active = T/C of 150% or more; inactive = T/C below 125%. Square brackets hold non-standard residues; d marks the D form. Peptide text beside a SMILES is read from it. * marks the point of attachment. ξ: configuration not given here. Cbz = O=C(OCc1ccccc1)*; OBn = c1ccc(CO*)cc1; ξP = O=C(O)C1CCCN1

System: L1210 leukemia ip in BDF1 mice, survival T/C
Assay: NCI In Vivo Anticancer Drug Screen. Data for tumor model L1210 Leukemia (intraperitoneal) in B6D2F1 (BDF1) mice
Conditions: endpoint: mean survival time, higher = longer survival
How it was run: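 Survival endpoint. Drug-treated group vs vehicle group, expressed as T divided by C. Tumor passaged by transplantation.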

[1] = dose: 100.0 mg/kg/injection, schedule: Q01DX009 (ip), vehicle: Klucel (hydroxypropylcellulose) (HPC)
[2] = dose: 100.0 mg/kg/injection, schedule: Q04DX003 (ip), vehicle: Klucel (hydroxypropylcellulose) (HPC)
[3] = dose: 200.0 mg/kg/injection, schedule: Q01DX009 (ip), vehicle: Klucel (hydroxypropylcellulose) (HPC)
[4] = dose: 200.0 mg/kg/injection, schedule: Q04DX003 (ip), vehicle: Klucel (hydroxypropylcellulose) (HPC)
[5] = dose: 400.0 mg/kg/injection, schedule: Q04DX003 (ip), vehicle: Klucel (hydroxypropylcellulose) (HPC)
[6] = dose: 100.0 mg/kg/injection, schedule: Q01DX001 (ip), vehicle: saline
[7] = dose: 100.0 mg/kg/injection, schedule: Q04DX003 (ip), vehicle: saline
[8] = dose: 200.0 mg/kg/injection, schedule: Q01DX001 (ip), vehicle: saline
[9] = dose: 400.0 mg/kg/injection, schedule: Q01DX001 (ip), vehicle: saline
[10] = dose: 12.5 mg/kg/injection, schedule: Q04DX003 (ip), vehicle: saline
[11] = dose: 25.0 mg/kg/injection, schedule: Q04DX003 (ip), vehicle: saline
[12] = dose: 50.0 mg/kg/injection, schedule: Q04DX003 (ip), vehicle: saline
[13] = dose: 12.5 mg/kg/injection, schedule: Q01DX009 (ip), vehicle: saline
[14] = dose: 25.0 mg/kg/injection, schedule: Q01DX009 (ip), vehicle: saline
[15] = dose: 50.0 mg/kg/injection, schedule: Q01DX009 (ip), vehicle: saline
[16] = dose: 100.0 mg/kg/injection, schedule: Q01DX009 (ip), vehicle: saline with Tween-80
[17] = dose: 100.0 mg/kg/injection, schedule: Q04DX003 (ip), vehicle: saline with Tween-80
[18] = dose: 200.0 mg/kg/injection, schedule: Q01DX009 (ip), vehicle: saline with Tween-80
[19] = dose: 200.0 mg/kg/injection, schedule: Q04DX003 (ip), vehicle: saline with Tween-80
[20] = dose: 400.0 mg/kg/injection, schedule: Q04DX003 (ip), vehicle: saline with Tween-80

Measured: T/C

CC(=O)c1ccccc1OCC(O)CN1CCN(c2ccccc2Cl)CC1 (stereo not drawn)
inactive: dose: 37.5 mg/kg/injection, schedule: Q01DX009 (ip), vehicle: saline with Tween-80 97 % of control | dose: 37.5 mg/kg/injection, schedule: Q04DX003 (ip), vehicle: saline with Tween-80 105 % of control | dose: 75.0 mg/kg/injection, schedule: Q01DX009 (ip), vehicle: saline with Tween-80 89 % of control | dose: 75.0 mg/kg/injection, schedule: Q04DX003 (ip), vehicle: saline with Tween-80 108 % of control | dose: 150.0 mg/kg/injection, schedule: Q01DX009 (ip), vehicle: saline with Tween-80 93 % of control | dose: 150.0 mg/kg/injection, schedule: Q04DX003 (ip), vehicle: saline with Tween-80 94 % of control

OCCCNc1nc2c(Cl)cc(Cl)cc2c2ccccc12
inactive: [1] 104 % of control | [2] 107 % of control | [3] 94 % of control | [4] 108 % of control | [5] 95 % of control

CC(C)(C)CC(N)=O
inactive: [6] 106 % of control | dose: 100.0 mg/kg/injection, schedule: Q01DX009 (ip), vehicle: saline 101 % of control | [2] 117 % of control | [7] 103 % of control | dose: 133.0 mg/kg/injection, schedule: Q01DX009 (ip), vehicle: Klucel (hydroxypropylcellulose) (HPC) 111 % of control | dose: 133.0 mg/kg/injection, schedule: Q04DX003 (ip), vehicle: Klucel (hydroxypropylcellulose) (HPC) 123 % of control | [8] 97 % of control | [3] 111 % of control | dose: 200.0 mg/kg/injection, schedule: Q01DX009 (ip), vehicle: saline 89 % of control | [4] 124 % of control | dose: 200.0 mg/kg/injection, schedule: Q04DX003 (ip), vehicle: saline 97 % of control | dose: 300.0 mg/kg/injection, schedule: Q01DX009 (ip), vehicle: Klucel (hydroxypropylcellulose) (HPC) 105 % of control | dose: 300.0 mg/kg/injection, schedule: Q04DX003 (ip), vehicle: Klucel (hydroxypropylcellulose) (HPC) 98 % of control | [9] 103 % of control | dose: 400.0 mg/kg/injection, schedule: Q01DX009 (ip), vehicle: saline 97 % of control | [5] 109 % of control | dose: 400.0 mg/kg/injection, schedule: Q04DX003 (ip), vehicle: saline 103 % of control

CCOC(=O)/C=C/C(=O)O.[Co]
inactive: [10] 114 % of control | [11] 118 % of control | [12] 116 % of control | [7] 118 % of control and 121 % of control

CCCCCCCCOC(=O)Nc1ccc(S(=O)(=O)NC2CCCCC2)cc1
inactive: dose: 100.0 mg/kg/injection, schedule: Q01DX001 (ip), vehicle: carboxymethylcellulose (CMC) 89 % of control | dose: 200.0 mg/kg/injection, schedule: Q01DX001 (ip), vehicle: carboxymethylcellulose (CMC) 89 % of control | dose: 400.0 mg/kg/injection, schedule: Q01DX001 (ip), vehicle: carboxymethylcellulose (CMC) 94 % of control

CCCC#C/C=C1/C=CC(=O)O1
inactive: dose: 75.0 mg/kg/injection, schedule: Q01DX001 (ip), vehicle: carboxymethylcellulose (CMC) 94 % of control | dose: 150.0 mg/kg/injection, schedule: Q01DX001 (ip), vehicle: carboxymethylcellulose (CMC) 97 % of control

Cc1ccccc1C(=O)c1ccccc1C
inactive: dose: 50.0 mg/kg/injection, schedule: Q01DX001 (ip), vehicle: other 118 % of control | dose: 100.0 mg/kg/injection, schedule: Q01DX001 (ip), vehicle: other 102 % of control | dose: 200.0 mg/kg/injection, schedule: Q01DX001 (ip), vehicle: other 113 % of control | dose: 400.0 mg/kg/injection, schedule: Q01DX001 (ip), vehicle: other 107 % of control

O=C(O)c1ccc(I)cc1.[Ni]
inactive: dose: 25.0 mg/kg/injection, schedule: Q04DX002 (ip), vehicle: Klucel (hydroxypropylcellulose) (HPC) 100 % of control | dose: 50.0 mg/kg/injection, schedule: Q04DX002 (ip), vehicle: Klucel (hydroxypropylcellulose) (HPC) 100 % of control

Cl[C](Cl)(Cl)[Hg][c]1ccccc1
inactive: dose: 3.0 mg/kg/injection, schedule: Q01DX009 (ip), vehicle: Klucel (hydroxypropylcellulose) (HPC) 88 % of control | dose: 6.0 mg/kg/injection, schedule: Q01DX009 (ip), vehicle: Klucel (hydroxypropylcellulose) (HPC) 92 % of control | dose: 12.0 mg/kg/injection, schedule: Q01DX009 (ip), vehicle: Klucel (hydroxypropylcellulose) (HPC) 90 % of control | dose: 12.5 mg/kg/injection, schedule: Q01DX009 (ip), vehicle: Klucel (hydroxypropylcellulose) (HPC) 110 % of control

CCC1CC(C)C(=O)NC1=O (stereo not drawn)
inactive: [13] 95 % of control | [10] 91 % of control | [14] 100 % of control | [11] 110 % of control | [15] 95 % of control | [12] 96 % of control

Cc1ccc(CNc2cccc([N+](=O)[O-])c2)cc1
inactive: [1] 98 % of control | [2] 98 % of control | [3] 93 % of control | [4] 96 % of control | dose: 400.0 mg/kg/injection, schedule: Q01DX009 (ip), vehicle: Klucel (hydroxypropylcellulose) (HPC) 102 % of control | [5] 101 % of control

O=C(Nc1cccc(F)c1)Nc1ccc(Cl)cc1Cl
inactive: [1] 96 % of control | [3] 91 % of control

N#CCCCCSC12CC3CC(CC(C3)C1)C2
inactive: dose: 100.0 mg/kg/injection, schedule: Q04DX002 (ip), vehicle: Klucel (hydroxypropylcellulose) (HPC) 115 % of control | dose: 200.0 mg/kg/injection, schedule: Q04DX002 (ip), vehicle: Klucel (hydroxypropylcellulose) (HPC) 108 % of control | dose: 400.0 mg/kg/injection, schedule: Q04DX002 (ip), vehicle: Klucel (hydroxypropylcellulose) (HPC) 89 % of control

O=C(NC1CCCCC1)c1ccccc1
inactive: [2] 100 % of control | [4] 93 % of control | [5] 96 % of control

NC(CS)C(=O)O (stereo not drawn)
inactive: [6] 105 % of control | [8] 92 % of control | dose: 250.0 mg/kg/injection, schedule: Q01DX Z (ip), vehicle: other 91 % of control | dose: 250.0 mg/kg/injection, schedule: Q01DX Z (ip), vehicle: saline 102 % of control | [9] 97 % of control | dose: 500.0 mg/kg/injection, schedule: Q01DX Z (ip), vehicle: saline 94 % of control | dose: 1000.0 mg/kg/injection, schedule: Q01DX Z (ip), vehicle: saline 112 % of control

O=C(CNC(=O)OCc1ccccc1)NCC(=O)N1CCCC1C(=O)OCc1ccccc1 (stereo not drawn) (Cbz-Gly-Gly-[ξP]-OBn)
inactive: [2] 101 % of control | [4] 103 % of control | [5] 100 % of control

CC(C)COC(C[N+](=O)[O-])C(Cl)(Cl)Cl (stereo not drawn)
inactive: [16] 98 % of control | [17] 92 % of control | [18] 89 % of control | [19] 90 % of control | [20] 92 % of control

NNc1ncnc2nncnc12
inactive: dose: 9.5 mg/kg/injection, schedule: Q01DX001 (ip), vehicle: other 98 % of control | dose: 19.0 mg/kg/injection, schedule: Q01DX001 (ip), vehicle: other 105 % of control | dose: 38.0 mg/kg/injection, schedule: Q01DX001 (ip), vehicle: other 104 % of control

CSc1nccc(=O)n1C
inactive: [13] 96 % of control | [14] 96 % of control | [11] 98 % of control | [15] 101 % of control | [12] 106 % of control | [7] 107 % of control

Oc1ccccc1C=Nc1cc(Cl)ccc1O
inactive: [6] 97 % of control | [8] 95 % of control | [9] 103 % of control

CC[N+](C)(C)CCCOC(=O)C1C2CC3CC(C2)CC1C3 (stereo not drawn)
inactive: dose: 25.0 mg/kg/injection, schedule: Q04DX002 (ip), vehicle: saline 88 % of control | dose: 50.0 mg/kg/injection, schedule: Q04DX002 (ip), vehicle: saline 98 % of control

NC(=O)NC1OC(COC(=O)c2ccccc2)C(OC(=O)c2ccccc2)C1OC(=O)c1ccccc1 (stereo not drawn)
inactive: [16] 89 % of control | [17] 92 % of control | [18] 90 % of control | [19] 94 % of control | dose: 400.0 mg/kg/injection, schedule: Q01DX009 (ip), vehicle: saline with Tween-80 89 % of control | [20] 94 % of control

Cc1nc(C[N+](C)(C)C)c2cnccn12
inactive: [7] 102 % of control
